According to paper PMC11053098, “Unravelling and reconstructing the biosynthetic pathway of bergenin” (Nature Communications, 2024):

Experiments:
AjOMT2 = system: T1, AjOMT2; assay: HPLC methyltransferase assay; format: biochemical, Ardisia japonica; details: co-substrate SAM; metal-dependent (Mg2+); details in Supplementary Methods 5-7; read-out: apparent Km
T1 construct: cloned in pET28a (BamHI/EcoRI), E. coli Transetta (DE3), Ni-NTA purified

AjCGT1 = system: T2, AjCGT1; assay: HPLC glycosyltransferase assay; format: biochemical, Ardisia japonica; details: co-substrate UDP-Glc; details in Supplementary Methods 5-7; substrate unstable in buffer; read-out: apparent Km
T2 construct: full-length cDNA in pET28a (BamHI/EcoRI), E. coli Transetta (DE3), Ni-NTA purified

O=C(O)c1cc(O)c(O)c(O)c1 [compound 2, GA]
Km (AjOMT2): 72 µM

COc1c(O)cc(C(=O)O)cc1O [compound 3, 4-OMGA]
Km (AjCGT1): 265 µM

O=C1O[C@@H]2[C@@H](O)[C@H](O)[C@@H](CO)O[C@H]2c2c1cc(O)c(O)c2O [compound 6, norbergenin]
Km (AjOMT2): 494 µM
